{
  "source": "patent US5932417A",
  "about": "“Method of screening compounds for controlling capacitative calcium ion entry into mammalian cells” (priority 1996, dated 1999)",
  "key": {"M5 muscarinic receptor [1]": {"tested_on": "M5 muscarinic receptor", "experiment": "Carbachol-induced capacitative Ca2+ influx in Ltk- cell lines expressing the M5 receptor (Fura2)", "assay_type": "cell-based", "settings": "control Ltk- cell lines with M5 receptor only; average±SD, 20 cells each of 5 clones", "method": "Mouse fibroblast Ltk^- cells (3×10^6 cells/100 mm dish) were transfected by the calcium phosphate/glycerol shock method with 5 μg each of the plasmids with the antisense cDNAs and 0.5 μg of the pcDNA3 carrying the M5 receptor. The control cells received only the M5 muscarinic receptor cDNA in pcDNA3. One day after transfection, the cells were trypsinized and diluted with Minimum Essential Medium--α medium containing 10% heat-inactivated fetal bovine serum, 50 units/ml penicillin, 50 μg/ml streptomycin, and 400 μg/ml G418 (GIBCO). Serial 1:4 dilutions of the cells were transferred into 96-well plates and G418 resistant clones were allowed to develop for two weeks in the G41 8-containing medium. Single colonies were then expanded and the cells used for Fura2 fluorescence measurement of muscarinic receptor induced [Ca^2+ ]i transients. […]\nIntracellular Ca^2+ transients were measured in individual cells by fluorescence videomicroscopy using the Attofluor Digital Imaging and Photometry attachment of a Carl Zeiss Axiovert inverted microscope. […] [Ca^2+ ]i in individual cells was monitored at room temperature exciting Fura2 alternatingly at 334 and 380 nm and recording emitted fluorescence at 520 nm. […]"}, "[2]": {"tested_on": "CCE endogenous to COS cells", "assay_type": "cell-based", "experimental": "Intracellular Ca^2+ transients were measured in individual cells by fluorescence videomicroscopy using the Attofluor Digital Imaging and Photometry attachment of a Carl Zeiss Axiovert inverted microscope. Cells (COS-M6 or L) were grown on circular coverslips, rinsed and incubated with 5 μM Fura2/AM (Molecular Probes) in Hepes buffered saline (HPSS: 120 mM NaCl, 5.3 mM KCl, 0.8 mM MgSO4, 1.8 mM CaCl2, 11.1 mM glucose, 20 mM Hepes-Na, pH 7.4) at 37° C. for 30 min and then washed with HPSS twice at room temperature. The coverslips with the cells were then clamped into a circular open-bottom chamber and mounted onto the stage of the microscope. [Ca^2+ ]i in individual cells was monitored at room temperature exciting Fura2 alternatingly at 334 and 380 nm and recording emitted fluorescence at 520 nm. […] Data from 15 to 30 individual cells were thus collected per experiment and experiments were repeated until data from sufficient cells were collected to generate an ensemble average that was calculated after transfer into Microsoft Excel 5.0. […]\nFor assessment of the rate at which [Ca^2+ ]i falls after an initial stimulation with agonist, t=0 is the time of agonist addition; for assessment of rate of influx of Ca^2+ into cells in which Ca^2+ stores had been depleted by agonist, t=0 is the time of Ca^2+ readdition. t1/2 /values were obtained by fitting the function A=A°exp(-t·ln2/t1/2)+B to the data points shown. […]"}, "Htrp3 [3]": {"target": "T1, Htrp3 (Homo sapiens, UniProt Q13507)", "T1 sequence (Q13507 1-848 isoform Q13507-3)": "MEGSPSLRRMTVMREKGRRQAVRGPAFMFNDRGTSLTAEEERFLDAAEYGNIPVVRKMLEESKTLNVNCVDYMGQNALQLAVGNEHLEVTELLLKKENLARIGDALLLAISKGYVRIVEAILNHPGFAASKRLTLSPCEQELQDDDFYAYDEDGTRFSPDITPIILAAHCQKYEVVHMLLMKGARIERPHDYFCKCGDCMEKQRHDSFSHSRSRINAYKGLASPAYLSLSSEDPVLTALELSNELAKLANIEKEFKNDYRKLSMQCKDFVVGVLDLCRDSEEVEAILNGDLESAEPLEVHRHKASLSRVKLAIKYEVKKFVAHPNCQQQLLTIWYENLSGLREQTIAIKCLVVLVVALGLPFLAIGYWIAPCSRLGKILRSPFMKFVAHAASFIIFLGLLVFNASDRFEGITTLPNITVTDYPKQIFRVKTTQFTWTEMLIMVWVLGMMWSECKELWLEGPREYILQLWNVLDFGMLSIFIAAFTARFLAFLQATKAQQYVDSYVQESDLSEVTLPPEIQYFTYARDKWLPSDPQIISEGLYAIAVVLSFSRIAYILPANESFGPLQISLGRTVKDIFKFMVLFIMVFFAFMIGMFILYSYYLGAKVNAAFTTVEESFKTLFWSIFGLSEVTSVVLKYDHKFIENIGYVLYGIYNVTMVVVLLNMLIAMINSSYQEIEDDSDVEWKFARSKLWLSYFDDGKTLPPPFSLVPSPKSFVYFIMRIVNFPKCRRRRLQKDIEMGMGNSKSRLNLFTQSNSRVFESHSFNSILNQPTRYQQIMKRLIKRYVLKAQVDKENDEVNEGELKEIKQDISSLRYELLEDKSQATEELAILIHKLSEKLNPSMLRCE", "experiment": "Thapsigargin (store depletion)-stimulated Ca2+ entry in Htrp3-transfected COS cells", "assay_type": "cell-based", "design": "The full length cDNAs encoding the M5 muscarinic receptor (32), Htrp1 (29), Htrp3 and murine luteinizing hormone receptor; expressed in transfected cells; host or cells: COS-M6", "settings": "250 μM La3+; 500 nM TG, 1.8 mM Ca2+ added", "method": "(§1) Intracellular Ca^2+ transients were measured in individual cells by fluorescence videomicroscopy using the Attofluor Digital Imaging and Photometry attachment of a Carl Zeiss Axiovert inverted microscope. Cells (COS-M6 or L) were grown on circular coverslips, rinsed and incubated with 5 μM Fura2/AM (Molecular Probes) in Hepes buffered saline (HPSS: 120 mM NaCl, 5.3 mM KCl, 0.8 mM MgSO4, 1.8 mM CaCl2, 11.1 mM glucose, 20 mM Hepes-Na, pH 7.4) at 37° C. for 30 min and then washed with HPSS twice at room temperature. The coverslips with the cells were then clamped into a circular open-bottom chamber and mounted onto the stage of the microscope. [Ca^2+ ]i in individual cells was monitored at room temperature exciting Fura2 alternatingly at 334 and 380 nm and recording emitted fluorescence at 520 nm. All reagents were diluted to their final concentrations in HPSS and applied to the cells by surface perfusion. The duration of exposure to each reagent mixture is indicated by the horizontal lines above the graphs depicting the changes in [Ca^2+ ]i as a function of time. […] Data from 15 to 30 individual cells were thus collected per experiment and experiments were repeated until data from sufficient cells were collected to generate an ensemble average that was calculated after transfer into Microsoft Excel 5.0. […]"}, "[4]": {"tested_on": "endogenous TG-stimulated Ca2+ entry of COS cells", "experiment": "Thapsigargin (store depletion)-stimulated Ca2+ entry in control COS cells", "assay_type": "cell-based", "settings": "250 μM La3+, 500 nM TG, 1.8 mM Ca2+ added", "method": "as §1"}, "Htrp3 [5]": {"target": "T1, Htrp3", "assay_type": "cell-based", "design": "The full length cDNAs encoding the M5 muscarinic receptor (32), Htrp1 (29), Htrp3 and murine luteinizing hormone receptor; expressed in transfected cells; host or cells: COS-M6", "experimental": "Intracellular Ca^2+ transients were measured in individual cells by fluorescence videomicroscopy using the Attofluor Digital Imaging and Photometry attachment of a Carl Zeiss Axiovert inverted microscope. Cells (COS-M6 or L) were grown on circular coverslips, rinsed and incubated with 5 μM Fura2/AM (Molecular Probes) in Hepes buffered saline (HPSS: 120 mM NaCl, 5.3 mM KCl, 0.8 mM MgSO4, 1.8 mM CaCl2, 11.1 mM glucose, 20 mM Hepes-Na, pH 7.4) at 37° C. for 30 min and then washed with HPSS twice at room temperature. The coverslips with the cells were then clamped into a circular open-bottom chamber and mounted onto the stage of the microscope. [Ca^2+ ]i in individual cells was monitored at room temperature exciting Fura2 alternatingly at 334 and 380 nm and recording emitted fluorescence at 520 nm. All reagents were diluted to their final concentrations in HPSS and applied to the cells by surface perfusion. […] The system allows data acquisition from up to 99 user-defined variably-sized regions of interest per field of view. Data from 15 to 30 individual cells were thus collected per experiment and experiments were repeated until data from sufficient cells were collected to generate an ensemble average that was calculated after transfer into Microsoft Excel 5.0. […]\nFor assessment of the rate at which [Ca^2+ ]i falls after an initial stimulation with agonist, t=0 is the time of agonist addition; for assessment of rate of influx of Ca^2+ into cells in which Ca^2+ stores had been depleted by agonist, t=0 is the time of Ca^2+ readdition. t1/2 /values were obtained by fitting the function A=A°exp(-t·ln2/t1/2)+B to the data points shown.\nCells that had been transfected with expression vectors carrying the M5 receptor and, as appropriate, either the newly cloned Htrp3 cDNA or the previously cloned Htrp1 cDNA (29), were grown on coverslips, loaded with the florescent Ca^2+ indicator dye Fura2 and tested for a response to CCh 40-48 hours after transfection. […] Changes in [Ca^2+ ]i as a function of time were recorded from individual cells, averaged and fitted by a first order decay function plus an offset."}, "[6]": {"tested_on": "CCE endogenous to the HEK 293 cell", "experiment": "Carbachol-stimulated endogenous CCE in control HEK 293 cells", "assay_type": "cell-based, human", "settings": "25 μM SKF 96365", "text": "(§2) Trp proteins can be expressed in cells by standard recombinant means such as described in Innamoratti et al. (57), Gudermann et al. (58), Zhu et al. (59) and Ca^2+ influx monitored in single cells as described in Zhu et al. (30) or in a population of cells as described in Liao et al. (32). By doing this in the absence and presence of test compounds of which the effect on trp-mediated CCE can then be determined. An example is shown below (FIGS. 1 and 2) where human embryonic kidney cells (HEK-293 cells) expressing Htrp3 in stable form (HEKt3-9) are stimulated with carbachol and CCE is measured upon readdition of Ca^2+ to the extracellular medium. […] Not only agents that block calcium entry due to trp expression but also agents that stimulate calcium entry due to trp can be monitored in this way.\n(§3) In the above examples, cell were suspended in extracellular solution at a concentration of 20×10^6 cells/ml, loaded with Fura2AM (5 μM, 30 min), washed with solution nominally free of calcium, twice, and suspended at 2×10^6 cells/ml. Intracellular Ca^2+ concentrations were then monitored as described in Liao et al (32). Times and concentrations of additions are depicted by the bars in the Figures. Control cells were HEK 293 cells expressing an unrelated protein. For further details see references 32 and 30. […]"}, "Htrp3 [7]": {"target": "T1, Htrp3", "experiment": "Carbachol-stimulated CCE upon Ca2+ readdition in HEK-293 cells stably expressing Htrp3 (HEKt3-9)", "assay_type": "cell-based", "design": "expressed in transfected cells", "settings": "25 μM SKF 96365, HEKt3-9 cells, Ca2+ readdition (FIG. 2)", "text": "as §2, §3"}, "M5 muscarinic receptor [8]": {"tested_on": "M5 muscarinic receptor", "experiment": "Carbachol-induced [Ca2+]i plateau in COS-M6 cells transfected with M5 receptor", "assay_type": "cell-based", "settings": "extracellular Ca2+ present", "method": "COS-M6 cells were transfected by the DEAE-dextran/chloroquine shock method (14) as described (30) with changes. Sixteen hours prior to transfection, COS-M6 cells that had been kept subconfluent were plated at a density of 2×10^5 cells/well onto 25 mm glass coverslips placed at the bottom of the wells of 6-well plates. Cells in the individual wells were then transfected with 160 μl of transfection mixture (30) containing 0.1 μg pcDNA3 with the M5 receptor cDNA, a three fold molar excess of pcDNA3 vector carrying either the Htrp3, Htrp1 or mLHR cDNA to bring the final concentration of DNA to 4 μg/ml. Cell were used 40 to 48 hours after transfection.\nIntracellular Ca^2+ transients were measured in individual cells by fluorescence videomicroscopy using the Attofluor Digital Imaging and Photometry attachment of a Carl Zeiss Axiovert inverted microscope. […] [Ca^2+ ]i in individual cells was monitored at room temperature exciting Fura2 alternatingly at 334 and 380 nm and recording emitted fluorescence at 520 nm. […] Data from 15 to 30 individual cells were thus collected per experiment and experiments were repeated until data from sufficient cells were collected to generate an ensemble average that was calculated after transfer into Microsoft Excel 5.0. […]"}, "Htrp3 [9]": {"target": "T1, Htrp3", "experiment": "Maitotoxin-stimulated Ca2+ influx into HEK 293 cells expressing Htrp3 versus control cells", "assay_type": "cell-based", "design": "expressed in transfected cells", "settings": "HEK 293 cells (FIG. 3)", "text": "as §2, §3"}},
  "note": "Entries after “also recorded” stand apart in the source; their conditions may differ.",
  "data": [
    {"compound": "C[N+](C)(C)CCOC(N)=O", "note": "[CCh, carbachol]", "values": [
      {"measurement": "Increase of [Ca2+]i through the capacitative influx path (at Ca2+ addition vs 30 sec later)", "setting": "M5 muscarinic receptor [1]", "result": "96 ± 5", "unit": "nM"}
    ]},
    {"compound": "[La+3]", "note": "[La^3+, lanthanum]", "values": [
      {"measurement": "Block of endogenous Ca2+ influx", "setting": "[2]; 250 μM La3+, COS cells, agonist-stimulated", "result": "80-90%"},
      {"measurement": "Inhibition of CCE endogenous to COS cells", "setting": "[2]; 1 mM La3+, CCh-stimulated, Ca2+ readdition", "result": "fully inhibited"},
      {"measurement": "Effect on TG-stimulated Ca2+ entry into Htrp3 transfected cells", "setting": "Htrp3 [3]", "result": "significant residual"},
      {"measurement": "Block of TG-stimulated Ca2+ entry", "setting": "[4]", "result": "> 80", "unit": "%"},
      {"measurement": "Block of the difference due to Htrp3 influx", "setting": "Htrp3 [5]; 250 μM La3+, Htrp3-transfected COS cells", "result": "30-40%"},
      {"measurement": "Inhibition of Htrp3-stimulated Ca2+ influx", "setting": "Htrp3 [5]; 1 mM La3+, COS-M6 cells, CCh-stimulated, Ca2+ readdition", "result": "fully inhibited"}
    ]},
    {"compound": "[Ni+2]", "note": "[Ni^2+, nickel]", "values": [
      {"measurement": "Block of endogenous CCh-stimulated CCE", "setting": "[2]; 2 mM Ni2+, COS cells", "result": "> 90", "unit": "%"},
      {"measurement": "Inhibition of CCh-stimulated influx due to Htrp3", "setting": "Htrp3 [5]; 2 mM Ni2+, Htrp3-transfected COS cells", "result": 20, "unit": "%"},
      {"measurement": "Block of Ca2+ influx in Htrp3 cells", "setting": "Htrp3 [5]; 10 mM Ni2+, Htrp3-transfected COS cells", "result": 85, "unit": "%"}
    ]},
    {"compound": "COc1ccc(CCCOC(Cn2ccnc2)c2ccc(OC)cc2)cc1", "note": "(centres unmarked) [SKF 96365]", "values": [
      {"measurement": "Sensitivity of CCE endogenous to the HEK 293 cell (control)", "setting": "[6]", "result": "much less sensitive"},
      {"measurement": "Block of CCE due to Htrp3 (extra-CCE)", "setting": "Htrp3 [7]", "result": "blocks selectively; also recorded: blocked"}
    ]},
    {"compound": "CN1[C@@H]2CC[C@H]1C[C@@H](OC(=O)C(CO)c1ccccc1)C2", "note": "(some centres unmarked) [atropine]", "values": [
      {"measurement": "Effect on carbachol-maintained [Ca2+]i plateau", "setting": "M5 muscarinic receptor [8]", "result": "blocked"}
    ]},
    {"compound": "maitotoxin", "values": [
      {"measurement": "Maitotoxin-stimulated Ca2+ influx, Htrp3-expressing cells versus control cells", "setting": "Htrp3 [9]", "result": "several fold larger"}
    ]}
  ]
}
